Two compounds from publication PMC7182431, “CNGA3 acts as a cold sensor in hypothalamic neurons” (eLife, 2020) can be followed below.

For orientation: EC50 means the concentration at which the effect is half-maximal.

Common to all, as to format: cell-based
Assay [1] deals with T1, mCNGA3 (mouse CNGA3) (Mus musculus, UniProt A0A6H2E2T0).
T1 construct: HEK293T (PIEZO1-deleted) cells, also Xenopus oocytes; homomer
T1 sequence (A0A6H2E2T0 1-630): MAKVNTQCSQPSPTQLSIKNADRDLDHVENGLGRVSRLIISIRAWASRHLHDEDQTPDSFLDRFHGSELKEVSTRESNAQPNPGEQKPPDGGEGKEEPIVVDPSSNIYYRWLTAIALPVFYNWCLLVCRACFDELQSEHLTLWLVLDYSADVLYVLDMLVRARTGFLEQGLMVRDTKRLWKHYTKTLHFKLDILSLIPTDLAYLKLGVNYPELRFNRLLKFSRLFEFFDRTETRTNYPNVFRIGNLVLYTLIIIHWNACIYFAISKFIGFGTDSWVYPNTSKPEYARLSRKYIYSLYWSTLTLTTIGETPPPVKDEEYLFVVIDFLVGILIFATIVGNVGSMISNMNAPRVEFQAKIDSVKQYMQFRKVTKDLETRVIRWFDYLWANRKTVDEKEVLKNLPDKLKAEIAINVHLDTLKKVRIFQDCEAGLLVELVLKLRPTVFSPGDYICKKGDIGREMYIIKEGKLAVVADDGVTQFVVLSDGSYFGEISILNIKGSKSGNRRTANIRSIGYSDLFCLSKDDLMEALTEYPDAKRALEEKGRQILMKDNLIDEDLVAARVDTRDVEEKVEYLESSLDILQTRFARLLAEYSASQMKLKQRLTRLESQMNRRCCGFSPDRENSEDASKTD
Kind of assay: inside-out patch clamp, HEK293T, Hill fit. Background: Patch clamp records ionic current or voltage across a cell membrane.

The target of assay [2] is T2, sqCNGA3 (squirrel CNGA3) (Ictidomys tridecemlineatus, UniProt A0A6H2E3H4).
T2 construct: pMO vector, no tag stated; HEK293T (PIEZO1-deleted) cells, also Xenopus oocytes; homomer
T2 sequence (A0A6H2E3H4 1-672): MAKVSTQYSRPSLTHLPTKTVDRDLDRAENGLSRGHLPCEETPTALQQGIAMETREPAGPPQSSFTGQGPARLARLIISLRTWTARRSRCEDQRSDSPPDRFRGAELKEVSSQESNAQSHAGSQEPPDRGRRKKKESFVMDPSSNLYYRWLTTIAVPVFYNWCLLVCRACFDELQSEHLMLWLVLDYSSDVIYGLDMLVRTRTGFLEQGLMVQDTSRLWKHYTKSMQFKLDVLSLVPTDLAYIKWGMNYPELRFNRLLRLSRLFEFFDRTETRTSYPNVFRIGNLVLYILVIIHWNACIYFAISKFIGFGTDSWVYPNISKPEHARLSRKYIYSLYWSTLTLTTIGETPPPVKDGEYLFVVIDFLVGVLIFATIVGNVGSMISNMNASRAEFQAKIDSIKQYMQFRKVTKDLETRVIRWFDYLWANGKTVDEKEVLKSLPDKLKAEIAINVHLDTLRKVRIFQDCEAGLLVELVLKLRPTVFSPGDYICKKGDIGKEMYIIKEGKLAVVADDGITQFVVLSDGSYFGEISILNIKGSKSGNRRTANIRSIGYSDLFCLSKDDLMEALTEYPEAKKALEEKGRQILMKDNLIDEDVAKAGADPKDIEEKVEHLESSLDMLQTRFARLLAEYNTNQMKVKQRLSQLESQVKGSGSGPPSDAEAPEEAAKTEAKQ
Kind of assay: inside-out patch clamp, HEK293T, Hill fit.

The target in assay [3] is T3, CNGA3-CNGB1 heteromers (mCNGA3 with mCNGB1) (Mus musculus, UniProt A0A6H2E2T0+E1AZ71).
T3 construct: full-length subunits co-expressed in Xenopus oocytes from pMO vector; mixture with CNGA3 homomers likely
Kind of assay: voltage clamp, Xenopus oocytes, inhibition of cold-activated current. The following applies: 100 µM extracellular drug, 1 µM intracellular cGMP, -80 mV, cooling; inhibitor; mixed with CNGA3 homomers.

T3 sequence (E1AZ71 whole entry, one chain of several): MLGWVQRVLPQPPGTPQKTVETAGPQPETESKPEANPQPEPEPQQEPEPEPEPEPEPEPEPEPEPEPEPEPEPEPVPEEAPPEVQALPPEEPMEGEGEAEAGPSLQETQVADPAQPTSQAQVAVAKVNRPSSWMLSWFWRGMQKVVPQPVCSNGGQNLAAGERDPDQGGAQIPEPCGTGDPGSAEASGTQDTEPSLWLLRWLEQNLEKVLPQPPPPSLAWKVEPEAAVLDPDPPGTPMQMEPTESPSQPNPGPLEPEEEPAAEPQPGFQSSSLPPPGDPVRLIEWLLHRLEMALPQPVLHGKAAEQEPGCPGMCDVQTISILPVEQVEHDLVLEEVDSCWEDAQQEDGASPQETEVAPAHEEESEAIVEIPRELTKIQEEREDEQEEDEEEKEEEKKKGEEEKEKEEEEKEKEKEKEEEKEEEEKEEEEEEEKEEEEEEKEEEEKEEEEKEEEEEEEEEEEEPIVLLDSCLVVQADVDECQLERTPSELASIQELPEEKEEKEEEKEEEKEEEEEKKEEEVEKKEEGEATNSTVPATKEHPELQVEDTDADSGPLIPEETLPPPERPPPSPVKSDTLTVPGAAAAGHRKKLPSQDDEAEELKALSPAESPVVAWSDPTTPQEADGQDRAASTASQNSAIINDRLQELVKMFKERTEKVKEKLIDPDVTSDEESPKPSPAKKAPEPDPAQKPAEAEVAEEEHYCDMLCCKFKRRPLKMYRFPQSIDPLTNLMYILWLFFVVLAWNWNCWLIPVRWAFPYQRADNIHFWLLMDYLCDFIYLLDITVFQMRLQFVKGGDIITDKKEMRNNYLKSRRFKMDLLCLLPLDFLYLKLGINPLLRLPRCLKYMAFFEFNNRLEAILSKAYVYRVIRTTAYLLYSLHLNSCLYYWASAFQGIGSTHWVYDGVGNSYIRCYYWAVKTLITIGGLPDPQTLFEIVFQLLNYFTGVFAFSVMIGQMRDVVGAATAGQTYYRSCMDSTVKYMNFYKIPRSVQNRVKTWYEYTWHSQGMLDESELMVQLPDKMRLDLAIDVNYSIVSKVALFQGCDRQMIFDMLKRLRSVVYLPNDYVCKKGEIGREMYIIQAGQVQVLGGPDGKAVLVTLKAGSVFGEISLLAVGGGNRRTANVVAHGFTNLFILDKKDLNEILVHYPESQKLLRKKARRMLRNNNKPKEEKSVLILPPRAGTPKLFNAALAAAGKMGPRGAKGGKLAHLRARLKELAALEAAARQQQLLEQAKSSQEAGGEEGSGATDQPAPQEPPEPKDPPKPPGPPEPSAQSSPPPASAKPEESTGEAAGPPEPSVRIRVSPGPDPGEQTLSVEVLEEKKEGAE

With `Nc1nc2c(ncn2[C@@H]2O[C@@H]3COP(=O)(O)O[C@H]3[C@H]2O)c(=O)[nH]1` [cGMP], the EC50 in assay [1] amounted to 21.8 ± 5.48 µM; in assay [2], 26.4 ± 1.12 µM.

On to `COc1ccc([C@H]2Sc3ccccc3N(CCN(C)C)C(=O)[C@H]2OC(C)=O)cc1` [l-cis-diltiazem], for which the inhibition entry in assay [3] is reported as “CNGA3-CNGB1 heteromers can form a cold-activated l-cis-diltiazem-sensitive ion channel”.
